Test results from patent US6767903B1, “New7α, 17α-bis-alkylated testosterone derivatives and their use in long-term therapy of androgen-dependent diseases” (Schering AG, priority 1998, dated 2004).
Like-named read-outs stand apart in the source and are kept apart here.

System: human prostate cancer cell line LNCaP
Test: Antiproliferation test with the human prostate cancer cell line (LNCaP)
Assay type: cell-based
Conditions: LNCaP cells; for IC50: growth stimulated by 0.1 nM R1881, 7 days, MTT readout, read-out: Antiandrogeneity IC50 in the presence of 0.1 nM of R1881; for Androgeneity at 1 μM: test compound at 1 μM, growth stimulation by 0.1 nM of R1881 was set = 100%
From the text: Antiproliferation Test with the Human Prostate Cancer Cell Line (LNCaP)
The human prostate cancer cell line LNCaP [American Type Culture Collection (ATCC)=Accession No.: CRL 1740; Horoszewicz et al., Cancer Research, 43 pp. 1809-18, 1983] was isolated from the lymph node metastasis of a prostate cancer patient. It expresses the androgen receptor and can be stimulated in growth by androgens. The androgen-mediated growth stimulation can be blocked by simultaneous administration of antiandrogens. The antiandrogenic active strength (IC50) of test compounds can be determined by dose-action correlations.
The cells are cultivated in RPMI 1640 medium with penicillin (10,000 units/l), streptomycin (100 mg/l), glutamine ([…]), 10% fetal calf serum and 0.1 nM of the synthetic androgen R1881 (Metribolone, Roussel).
Day 1: Sowing of the cells in a density of 5,000-6,000/100 μl/hole in 96-hole plates. Adding test compound (100 μl/hole doubly concentrated) to the culture medium with 0.2 nM of R1881 (yields 0.1 nM final concentration). Incubation of the cells for 72 or 96 hours at 37° C., 5% CO2, 90% relative atmospheric humidity. In the culture medium, the fetal calf serum is replaced by 5% activated carbon-treated (steroid-free) serum.
Day 3 or 4: Medium change: In each case in 50% of the medium, inclusive test compounds are replaced by fresh medium. Incubation of the cells for 96 or 72 hours at 37° C., 5% CO2, 90% relative atmospheric humity.
Day 7: Adding 25 μl of MTT solution per hole {MTT=(3[4,5-dimethylthiazol-2-yl]-2,5-diphenaltetrazolium bromide (thiazolyl blue}. Incubation is for 3 hours at 37° C., 5% CO2, 90% relative atmospheric humidity. After the removal of the supernatant, addition of 100 μl of DMSO per hole. Measurement of the optical density at […].
The antiandrogens OH-flutamide and casodex that are found in clinical practice were tested, as well as the compound EM-101 (N-butyl, N-methyl-11-(17′β-hydroxy-4′-androsten-3′-on-7′α-yl)undecanamide of WO 91/00732.

`CC12CCC(=O)C=C1CC(CCCCCCCCCC[S+]([O-])c1ccccc1)C1C2CCC2(C)C1CCC2(O)C(F)(F)C(F)(F)F` (stereo not drawn) [Example 20, 17β-Hydroxy-17α-(1,1,2,2,2-pentafluoroethyl)-7α-[10-(phenylsulfinyl)decyl]androst-4-en-3-one] was tested, and the IC50 was 0.2 µM and the “Androgeneity at 1 μM” value was 0%.
With `CCCCN(C)C(=O)CCCCCCCCCC[C@@H]1CC2=CC(=O)CC[C@]2(C)[C@H]2CC[C@]3(C)[C@@H](O)CC[C@H]3[C@H]12` [EM-101, N-butyl, N-methyl-11-(17′β-hydroxy-4′-androsten-3′-on-7′α-yl)undecanamide] the IC50 was 4.44 µM and the “Androgeneity at 1 μM” value was 0%.
For `CC(C)(O)C(=O)Nc1ccc([N+](=O)[O-])c(C(F)(F)F)c1` [OH-flutamide], the IC50 was greater than 10 µM and the “Androgeneity at 1 μM” value was 144%.
With `C[C@]12CCC(=O)C=C1C[C@@H](CCCCCCCCCO)[C@@H]1[C@@H]2CC[C@@]2(C)[C@H]1CC[C@]2(C)O` [Example 53, 17β-Hydroxy-7α-(9-hydroxynonyl)-17α-methylandrost-4-en-3-one] the IC50 (Homo sapiens, 168 h) was 0.04 µM and the “Androgeneity at 1 μM” value was 0%.
In the case of `CC(O)(CS(=O)(=O)c1ccc(F)cc1)C(=O)Nc1ccc(C#N)c(C(F)(F)F)c1` (stereo not shown) [Casodex], the IC50 (Homo sapiens, 168 h) is reported as 0.44 µM and the “Androgeneity at 1 μM” value is reported as 7%.
